These results are taken from US8754076B2, “Cyclic inhibitors of 11beta-hydroxysteroid dehydrogenase 1” (Vitae Pharmaceuticals, Inc./Boehringer-Ingelheim, priority 2008, dated 2014).

Test [1] concerns the target human CYP2C9 (Homo sapiens, UniProt P11712). Description: Biological Test Example 9: CYP2C9 inhibition (Invitrogen kit, fluorogenic substrate OOMR). The format is in vitro ADME.
In test [2] the target is T1, human 11β-HSD1 (Homo sapiens, UniProt P28845).
T1 construct: expressed in transfected cells; host or cells: CHO cells (microsomal preparation)
T1 sequence (P28845 whole entry): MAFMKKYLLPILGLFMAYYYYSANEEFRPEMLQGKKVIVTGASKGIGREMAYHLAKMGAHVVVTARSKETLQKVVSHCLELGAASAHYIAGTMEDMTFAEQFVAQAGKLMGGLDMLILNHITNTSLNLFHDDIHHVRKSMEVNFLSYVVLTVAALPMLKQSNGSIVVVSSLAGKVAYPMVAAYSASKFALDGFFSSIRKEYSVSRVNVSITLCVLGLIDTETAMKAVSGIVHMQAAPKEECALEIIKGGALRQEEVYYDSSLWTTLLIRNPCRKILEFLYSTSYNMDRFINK
The format is biochemical.

Some results are limits rather than exact numbers.

human CYP2C9, sequence (P11712 whole entry): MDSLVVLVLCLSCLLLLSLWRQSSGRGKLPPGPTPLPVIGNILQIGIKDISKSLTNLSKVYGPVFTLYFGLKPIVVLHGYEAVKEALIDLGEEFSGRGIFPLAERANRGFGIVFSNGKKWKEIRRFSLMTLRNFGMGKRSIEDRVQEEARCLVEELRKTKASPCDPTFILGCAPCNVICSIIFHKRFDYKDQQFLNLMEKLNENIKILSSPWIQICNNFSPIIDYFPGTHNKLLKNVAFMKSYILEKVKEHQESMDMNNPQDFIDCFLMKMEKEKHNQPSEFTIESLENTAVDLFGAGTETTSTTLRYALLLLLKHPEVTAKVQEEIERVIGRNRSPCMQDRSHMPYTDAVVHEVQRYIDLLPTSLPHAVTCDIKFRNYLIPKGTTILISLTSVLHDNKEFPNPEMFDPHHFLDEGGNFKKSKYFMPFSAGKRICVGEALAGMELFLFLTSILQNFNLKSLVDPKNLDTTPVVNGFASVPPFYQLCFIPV

As usually defined, the IC50 is the concentration needed to halve the response being measured. A high value points to weaker potency. As to `CCn1cc(-c2ccc([C@H](C)N3CC[C@](CC(C)(C)O)(c4ccccc4)OC3=O)cc2)ccc1=O` [Example 53, (S)-3-((S)-1-(4-(1-ethyl-6-oxo-1,6-dihydropyridin-3-yl)phenyl)ethyl)-6-(2-hydroxy-2-methylpropyl)-6-phenyl-1,3-oxazinan-2-one], in test [1], the IC50 is over 30 µM.

`C[C@@H](c1ccc(-c2ccn(C)c(=O)c2)cc1)N1CC[C@](CC(C)(C)O)(c2ccccc2)OC1=O` [Example 48, (S)-6-(2-hydroxy-2-methylpropyl)-3-((S)-1-(4-(1-methyl-2-oxo-1,2-dihydropyridin-4-yl)phenyl)ethyl)-6-phenyl-1,3-oxazinan-2-one] returned an IC50 in test [1] of over 30 µM.

As for `C[C@@H](c1ccc(-c2ccn(C3CC3)c(=O)c2)cc1)N1CCC(CC2CC2)(CC(C)(C)O)OC1=O` (single isomer, unassigned) [93 Isomer 1], half-maximal inhibition in test [1] (IC50) required 28.5 µM.

With `C[C@@H](c1ccc(-c2cccn(C)c2=O)cc1)N1CC[C@](CCCO)(c2ccc(F)cc2)OC1=O` [Example 42, (R)-6-(4-fluorophenyl)-6-(3-hydroxypropyl)-3-((S)-1-(4-(1-methyl-2-oxo-1,2-dihydropyridin-3-yl)phenyl)ethyl)-1,3-oxazinan-2-one], the Shift in test [2] came out at 7.97.
